Experimental data: ChEMBL document CHEMBL1909046, “DrugMatrix in vitro pharmacology data”

What was measured:
[1] = DRUGMATRIX: Glutamate, Kainate radioligand binding (ligand: [3H] Kainic acid); format: cell membranes, Rattus norvegicus, Wistar, Brain, Membrane; settings: Not Active = under 50% inhibition at 10 µM
[2] = target: Cytochrome P450 2E1 (Homo sapiens, UniProt P05181); settings: bti-tn-5b1-4; note: in other assays of this panel Not Active means under 50% inhibition at 10 µM
[3] = target: T1, Endothelin-1 receptor (Homo sapiens, UniProt P25101); format: cell membranes, CHO-K1, Membrane; settings: cho-k1; note: in other assays of this panel Not Active means under 50% inhibition at 10 µM
T1 sequence (P25101 whole entry): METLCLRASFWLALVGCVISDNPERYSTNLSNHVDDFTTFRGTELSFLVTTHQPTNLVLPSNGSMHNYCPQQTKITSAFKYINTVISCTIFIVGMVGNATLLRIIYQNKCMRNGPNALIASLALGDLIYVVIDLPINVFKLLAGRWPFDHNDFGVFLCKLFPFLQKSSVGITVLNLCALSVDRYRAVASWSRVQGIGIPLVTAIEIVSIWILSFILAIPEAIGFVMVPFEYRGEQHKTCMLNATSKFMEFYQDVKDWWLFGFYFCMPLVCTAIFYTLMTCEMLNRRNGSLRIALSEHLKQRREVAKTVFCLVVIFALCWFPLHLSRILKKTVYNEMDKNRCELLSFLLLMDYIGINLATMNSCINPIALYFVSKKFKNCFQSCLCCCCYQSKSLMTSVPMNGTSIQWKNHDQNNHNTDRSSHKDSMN

[4] = target: Platelet-activating factor receptor (Homo sapiens, UniProt P25105); assay: biochemical; format: tissue-based; settings: platelet; note: in other assays of this panel Not Active means under 50% inhibition at 10 µM
[5] = target: Beta-3 adrenergic receptor (Homo sapiens, UniProt P13945); assay: DRUGMATRIX: Adrenergic beta3 radioligand binding (ligand: [125I] Cyanopindolol); format: cell membranes, HEK293, Membrane; settings: hek293; Not Active = under 50% inhibition at 10 µM
[6] = target: 5-hydroxytryptamine receptor 2B (Homo sapiens, UniProt P41595); format: cell membranes, CHO-K1, Membrane; settings: cho-k1; note: in other assays of this panel Not Active means under 50% inhibition at 10 µM
[7] = DRUGMATRIX: Purinergic P2X radioligand binding (ligand: [3H] alpha, beta-Methylene-ATP); format: cell membranes, Oryctolagus cuniculus, New Zealand albino, Urinary bladder, Membrane; settings: Not Active = under 50% inhibition at 10 µM

Chain of Beta-3 adrenergic receptor (P13945 whole entry): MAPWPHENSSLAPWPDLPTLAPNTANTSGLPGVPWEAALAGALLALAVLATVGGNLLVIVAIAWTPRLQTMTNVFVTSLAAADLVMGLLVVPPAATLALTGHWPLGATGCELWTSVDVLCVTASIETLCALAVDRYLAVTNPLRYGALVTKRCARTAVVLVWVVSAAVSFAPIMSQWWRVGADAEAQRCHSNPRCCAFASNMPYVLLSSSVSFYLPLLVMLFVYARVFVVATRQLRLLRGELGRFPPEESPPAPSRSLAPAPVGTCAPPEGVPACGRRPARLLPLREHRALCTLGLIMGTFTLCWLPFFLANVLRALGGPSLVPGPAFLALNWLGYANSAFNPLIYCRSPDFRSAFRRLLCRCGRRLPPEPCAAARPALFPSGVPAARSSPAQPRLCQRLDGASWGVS
Chain of Platelet-activating factor receptor (P25105 whole entry): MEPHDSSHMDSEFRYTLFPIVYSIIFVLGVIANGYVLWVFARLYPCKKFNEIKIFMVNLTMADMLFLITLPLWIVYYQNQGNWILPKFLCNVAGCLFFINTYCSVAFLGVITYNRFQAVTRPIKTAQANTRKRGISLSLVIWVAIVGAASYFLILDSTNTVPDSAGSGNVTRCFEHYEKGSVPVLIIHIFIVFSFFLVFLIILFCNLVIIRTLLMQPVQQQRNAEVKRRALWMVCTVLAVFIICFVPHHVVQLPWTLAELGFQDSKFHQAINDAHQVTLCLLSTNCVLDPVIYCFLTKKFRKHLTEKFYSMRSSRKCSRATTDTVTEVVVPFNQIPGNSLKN
Chain of Cytochrome P450 2E1 (P05181 whole entry): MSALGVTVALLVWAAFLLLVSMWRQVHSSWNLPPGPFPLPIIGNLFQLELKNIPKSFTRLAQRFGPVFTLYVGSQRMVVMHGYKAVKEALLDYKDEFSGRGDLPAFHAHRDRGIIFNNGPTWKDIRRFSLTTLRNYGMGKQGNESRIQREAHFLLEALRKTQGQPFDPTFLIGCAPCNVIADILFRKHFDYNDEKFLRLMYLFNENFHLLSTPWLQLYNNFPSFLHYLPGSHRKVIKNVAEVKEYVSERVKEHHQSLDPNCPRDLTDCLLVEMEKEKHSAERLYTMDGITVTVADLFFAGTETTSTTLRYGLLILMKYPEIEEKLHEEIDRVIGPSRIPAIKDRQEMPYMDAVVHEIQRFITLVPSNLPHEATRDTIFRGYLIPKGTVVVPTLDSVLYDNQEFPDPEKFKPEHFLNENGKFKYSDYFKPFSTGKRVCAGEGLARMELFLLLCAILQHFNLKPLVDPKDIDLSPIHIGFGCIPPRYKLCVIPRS
Chain of 5-hydroxytryptamine receptor 2B (P41595 whole entry): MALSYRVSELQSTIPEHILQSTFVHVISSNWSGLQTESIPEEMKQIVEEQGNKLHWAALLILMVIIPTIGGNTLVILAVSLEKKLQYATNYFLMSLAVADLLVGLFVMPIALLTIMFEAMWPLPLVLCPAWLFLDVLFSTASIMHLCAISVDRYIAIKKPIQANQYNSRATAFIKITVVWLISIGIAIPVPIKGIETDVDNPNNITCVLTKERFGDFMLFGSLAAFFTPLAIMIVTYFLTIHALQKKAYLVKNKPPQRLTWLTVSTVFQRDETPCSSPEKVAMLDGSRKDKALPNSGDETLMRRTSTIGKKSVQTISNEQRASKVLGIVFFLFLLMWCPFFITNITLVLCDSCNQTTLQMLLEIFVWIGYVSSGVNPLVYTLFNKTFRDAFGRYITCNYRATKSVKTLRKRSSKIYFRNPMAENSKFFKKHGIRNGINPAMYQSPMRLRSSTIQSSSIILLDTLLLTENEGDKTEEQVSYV

COBALT(II) ACETYLACETONATE
Not Active: IC50 [1] | Ki [1] | IC50 [2] | Ki [2] | IC50 [3] | Ki [3] | IC50 [4] | Ki [4] | IC50 [5] | Ki [5] | IC50 [6] | Ki [6] | IC50 [7] | Ki [7]

INSULIN HUMAN
Not Active: IC50 [1] | Ki [1] | IC50 [2] | Ki [2] | IC50 [3] | Ki [3] | IC50 [4] | Ki [4] | IC50 [5] | Ki [5] | IC50 [6] | Ki [6] | IC50 [7] | Ki [7]

POLYVINYL ALCOHOL
Not Active: IC50 [1] | Ki [1] | IC50 [2] | Ki [2] | IC50 [3] | Ki [3] | IC50 [4] | Ki [4] | IC50 [5] | Ki [5] | IC50 [6] | Ki [6] | IC50 [7] | Ki [7]
